Test results as given in BindingDB's records for doi:10.1021/np980122t (Istituto Per La Chimica Di Molecole Di Interesse Biologico …, 1998).

Assays:
[1] = Inhibition of bee venom group3 sPLA2 at 10 uM by liquid scintillation counting
[2] = Inhibition of rat air pouch group2 sPLA2 at 10 uM by liquid scintillation counting
[3] = Inhibition of human synovial group2 sPLA2 at 10 uM by liquid scintillation counting
[4] = Inhibition of Naja naja venom group1 sPLA2 at 10 uM by liquid scintillation counting

SMILES	IC50 [1]	inhibition [2]	inhibition [3]	IC50 [4]
CC1=C(CC/C(C)=C/CCC2=CC[C@H](C3=CC(=O)O[C@H]3O)O[C@H]2O)C(C)(C)CCC1 [5-Hydroxy-4-{(R)-6-hydroxy-5-[(E)-4-methyl-6-(2,6,6-trimethyl-cyclohex-1-enyl)-hex-3-enyl]-3,6-dihydro-2H-pyran-2-yl}-5H-furan-2-one]	62.5 µM	38.4%	93.2%	17 µM
C=C1CCC[C@H]2[C@](C)(CCC3=CCC(C4=CC(=O)OC4O)OC3)[C@H](C)CC[C@]12C (stereo partly drawn) [CACOSPONGIONOLIDE B]	35.4 µM	36.9%	86.7%	
CC1=CCC[C@@H]2[C@@](C)(CCC3=CC[C@H](C4=CC(=O)O[C@H]4O)OC3)[C@@H](C)CC[C@@]12C [cacospongionolide E]	94.8 µM	65.1%	96.7%	
C[C@H]1CC[C@@]23C[C@]2(C)CCC[C@@H]3[C@@]1(C)CCC1=CC[C@H](C2=CC(=O)O[C@H]2O)OC1 [cacospongionolide]		21.8%	90.7%	3.5 µM
